{"source": "paper PMC5319851", "about": "(Bioorganic & medicinal chemistry, 2016)", "key": {"RpMetAP1": {"biological_target": "RpMetAP1 (Rickettsia prowazekii, UniProt Q9ZCD3)", "sequence (Q9ZCD3 whole entry, looked up)": "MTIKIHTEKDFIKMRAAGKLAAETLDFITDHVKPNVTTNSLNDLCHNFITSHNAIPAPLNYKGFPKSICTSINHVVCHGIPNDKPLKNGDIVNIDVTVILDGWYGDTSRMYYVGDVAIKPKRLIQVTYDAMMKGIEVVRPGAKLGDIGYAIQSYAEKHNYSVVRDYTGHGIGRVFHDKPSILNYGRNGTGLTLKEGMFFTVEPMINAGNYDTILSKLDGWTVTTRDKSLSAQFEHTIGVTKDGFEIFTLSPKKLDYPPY"}, "[1]": {"tested_on": "primary pulmonary vascular endothelial cells (ECs)"}, "HsMetAP2": {"tested_on": "HsMetAP2", "conditions": "read-out: HsMetAP2 IC50; cited from earlier work"}, "HsMetAP1": {"tested_on": "HsMetAP1", "conditions": "read-out: HsMetAP1 IC50; cited from earlier work"}}, "data": [{"smiles": "O=C(O)c1ccc(-c2cccc([N+](=O)[O-])c2)o1", "note": "[Compound 2]", "values": [{"measurement": "Hill Slope (furoic acid species)", "setting": "RpMetAP1", "result": "1.0 ± 0.1"}]}, {"smiles": "O=C(O)c1ccc(-c2cccc(C(F)(F)F)c2)o1", "note": "[Compound 3]", "values": [{"measurement": "Hill Slope (furoic acid species)", "setting": "RpMetAP1", "result": "1.0 ± 0.1"}]}, {"smiles": "O=C(O)c1ccc(-c2ccccc2)o1", "note": "[Compound 4, 5-phenyl-2-furoic acid]", "values": [{"measurement": "Hill Slope (furoic acid species)", "setting": "RpMetAP1", "result": "1.0 ± 0.1"}]}, {"smiles": "Cc1ccc(-c2ccc(C(=O)O)o2)cc1", "note": "[Compound 5]", "values": [{"measurement": "Hill Slope (furoic acid species)", "setting": "RpMetAP1", "result": "1.0 ± 0.1"}]}, {"smiles": "O=C(O)c1ccc(-c2ccccc2C(F)(F)F)o1", "note": "[Compound 6]", "values": [{"measurement": "Hill Slope (furoic acid species)", "setting": "RpMetAP1", "result": "2.1 ± 0.1"}]}, {"smiles": "O=C(O)c1ccc(-c2ccc(Br)cc2)o1", "note": "[Compound 7]", "values": [{"measurement": "Hill Slope (furoic acid species)", "setting": "RpMetAP1", "result": "1.0 ± 0.1"}]}, {"smiles": "Cc1ccccc1-c1ccc(C(=O)O)o1", "note": "[Compound 8]", "values": [{"measurement": "Hill Slope (furoic acid species)", "setting": "RpMetAP1", "result": "1.3 ± 0.1"}]}, {"smiles": "Cc1cccc(-c2ccc(C(=O)O)o2)c1", "note": "[Compound 9]", "values": [{"measurement": "Hill Slope (furoic acid species)", "setting": "RpMetAP1", "result": "1.0 ± 0.1"}]}, {"smiles": "Nc1n[nH]c(SCc2ccccc2)n1", "note": "[Compound 12]", "values": [{"measurement": "Host EC metabolism (WST-1) of uninfected ECs", "setting": "[1]", "result": "stimulated EC metabolism"}]}, {"smiles": "Nc1n[nH]c(SCc2ccccc2Cl)n1", "note": "[Compound 15]", "values": [{"measurement": "Host EC metabolism (WST-1) of uninfected ECs", "setting": "[1]", "result": "stimulated EC metabolism"}]}, {"smiles": "Nc1nnc(SCc2ccc(Cl)cc2)[nH]1", "note": "[Compound 16]", "values": [{"measurement": "Effect of compound alone on appearance of EC monolayers", "setting": "[1]", "result": "no overt effect on the appearance of the monolayers"}, {"measurement": "Host EC metabolism (WST-1) of uninfected ECs", "setting": "[1]", "result": "stimulated EC metabolism"}]}, {"smiles": "CC(C)(C)c1ccc(CSc2nnc(N)[nH]2)cc1", "note": "[Compound 19]", "values": [{"measurement": "IC50", "setting": "HsMetAP2", "result": "> 15", "unit": "µM"}, {"measurement": "IC50", "setting": "HsMetAP1", "result": "> 15", "unit": "µM"}]}, {"smiles": "Cc1ccc2cccc(O)c2n1", "note": "[Compound 20, 2-methyl-8-quinolinol]", "values": [{"measurement": "IC50", "setting": "HsMetAP2", "result": "2.03 ± 0.3", "unit": "µM"}, {"measurement": "IC50", "setting": "HsMetAP1", "result": "> 15", "unit": "µM"}, {"measurement": "Hill Slope (quinolinol species)", "setting": "RpMetAP1", "result": "1.1 ± 0.1"}]}, {"smiles": "Oc1ccc(Cl)c2cccnc12", "note": "[Compound 22, 5-chloro-8-quinolinol]", "values": [{"measurement": "Hill Slope (quinolinol species)", "setting": "RpMetAP1", "result": "1.9 ± 0.2"}]}, {"smiles": "O=[N+]([O-])c1ccc(O)c2ncccc12", "note": "[Compound 23, nitroxoline, reference compound]", "values": [{"measurement": "Hill Slope (quinolinol species)", "setting": "RpMetAP1", "result": "1.7 ± 0.5"}]}, {"smiles": "Oc1c(CN2CCOCC2)cc(Cl)c2cccnc12", "note": "[Compound 24]", "values": [{"measurement": "Hill Slope (quinolinol species)", "setting": "RpMetAP1", "result": "1.5 ± 0.1"}]}, {"smiles": "O=[N+]([O-])c1cc(CN2CCOCC2)c(O)c2ncccc12", "note": "[Compound 26]", "values": [{"measurement": "Hill Slope (quinolinol species)", "setting": "RpMetAP1", "result": "1.0 ± 0.1"}]}]}
